In US20240279236A1, “COMPOUNDS AND METHODS OF TREATING TUBERCULOSIS” (Fimbrion Therapeutics, Inc., priority 2021, published 2024):

These molecules were tested on WT Mtb Erdman strain (assay: Microplate Alamar Blue Assay (MABA), Mtb growth inhibition). Details: Middlebrook 7H9 media, 7 days at 37° C. in 5% CO2.
Type: cell-based, Mycobacterium tuberculosis
In the case of `Cc1cc2c(N[C@@H]3C[C@H]3c3ccc(F)c(F)c3)nc(-c3ccc(=O)[nH]c3)nc2s1` [Example 490, 5-(4-(((1R,2S)-2-(3,4-difluorophenyl)cyclopropyl)amino)-6-methylthieno[2,3-d]pyrimidin-2-yl)pyridin-2(1H)-one], the IC50 is reported as > 9100 nM.

Same assay, conditions: Mycobacterium tuberculosis, ERDMAN, 168 h, Middlebrook 7H9 media, 7 days at 37° C. in 5% CO2
Work on `CSc1nc(NCCCc2ccc(-c3ccc(C(F)(F)F)cn3)cc2)c2cc(C)sc2n1` [Example 458, 6-methyl-2-(methylthio)-N-(3-(4-(5-(trifluoromethyl)pyridin-2-yl)phenyl)propyl)thieno[2,3-d]pyrimidin-4-amine] yielded an IC50 of 14 nM. `Cc1cc2c(NCCCc3ccc(-c4ccc(OC(F)(F)F)cn4)cc3)nc(-c3ccon3)nc2s1` [Example 459, 2-(isoxazol-3-yl)-6-methyl-N-(3-(4-(5-(trifluoromethoxy)pyridin-2-yl)phenyl)propyl)thieno[2,3-d]pyrimidin-4-amine] was tested, and the IC50 was 43 nM. Molecule `Cc1nc2c(NCCCc3ccc(-c4cnc(F)cn4)cc3)nc(-c3ccon3)nc2s1` [Example 465, N-(3-[4-(5-fluoropyrazin-2-yl)phenyl]propyl)-2-methyl-5-(1,2-oxazol-3-yl)-[1,3]thiazolo[5,4-d]pyrimidin-7-amine] has an IC50 of 180 nM. Work on `FC(F)(F)Oc1ccc(-c2ccc(CCCNc3nc(Cl)nc4sccc34)cc2)cc1` [Example 467, 2-chloro-N-(3-(4′-(trifluoromethoxy)-[1,1′-biphenyl]-4-yl)propyl)thieno[2,3-d]pyrimidin-4-amine] yielded an IC50 of 200 nM. In the case of `FC(F)(F)Oc1ccc(-c2ccc(CCCNc3nc(Cl)nc4scnc34)cc2)cc1` [Example 468, 5-chloro-N-(3-(4′-(trifluoromethoxy)-[1,1′-biphenyl]-4-yl)propyl)thiazolo[5,4-d]pyrimidin-7-amine], the IC50 is reported as 690 nM. `Cc1cc2c(NCCCc3ccc(-c4cnc(F)cn4)cc3)nc(Cl)nc2s1` [Example 469, 2-chloro-N-(3-(4-(5-fluoropyrazin-2-yl)phenyl)propyl)-6-methylthieno[2,3-d]pyrimidin-4-amine] showed an IC50 of 170 nM. Molecule `Cc1nc2c(NCCCc3ccc(-c4cnc(F)cn4)cc3)nc(Cl)nc2s1` [Example 470, 5-chloro-N-(3-(4-(5-fluoropyrazin-2-yl)phenyl)propyl)-2-methylthiazolo[5,4-d]pyrimidin-7-amine] has an IC50 of 330 nM. With `Cc1cc2c(N[C@@H]3C[C@H]3c3ccc(F)c(F)c3)nc(-c3ccc(=O)[nH]c3)nc2s1` [Example 490, 5-(4-(((1R,2S)-2-(3,4-difluorophenyl)cyclopropyl)amino)-6-methylthieno[2,3-d]pyrimidin-2-yl)pyridin-2(1H)-one] the IC50 was 4700 nM. In the case of `Cc1cc2c(N[C@@H]3C[C@H]3c3ccc(F)c(F)c3)nc(-c3ccnc(N(C)C)c3)nc2s1` [Example 491, N-((1R,2S)-2-(3,4-difluorophenyl)cyclopropyl)-2-(2-(dimethylamino)pyridin-4-yl)-6-methylthieno[2,3-d]pyrimidin-4-amine], the IC50 is reported as 4400 nM. `Cc1cc2c(N[C@@H]3C[C@H]3c3ccc(F)c(F)c3)nc(-c3ccc(S(C)(=O)=O)cc3)nc2s1` [Example 492, N-((1R,2S)-2-(3,4-difluorophenyl)cyclopropyl)-6-methyl-2-(4-(methylsulfonyl)phenyl)thieno[2,3-d]pyrimidin-4-amine] was tested, and the IC50 was > 10000 nM. For `Cc1cc2c(N[C@@H]3C[C@H]3c3ccc(F)c(F)c3)nc(-c3cncnc3)nc2s1` [Example 493, N-((1R,2S)-2-(3,4-difluorophenyl)cyclopropyl)-6-methyl-2-(pyrimidin-5-yl)thieno[2,3-d]pyrimidin-4-amine], the IC50 was > 10000 nM. For `CNS(=O)(=O)c1ccccc1-c1nc(N[C@@H]2C[C@H]2c2ccc(F)c(F)c2)c2cc(C)sc2n1` [Example 494, 2-(4-(((1R,2S)-2-(3,4-difluorophenyl)cyclopropyl)amino)-6-methylthieno[2,3-d]pyrimidin-2-yl)-N-methylbenzenesulfonamide], the IC50 was > 10000 nM. In the case of `Cc1cc2c(N[C@@H]3C[C@H]3c3ccc(F)c(F)c3)nc(-c3ccccc3O)nc2s1` [Example 495, 2-(4-(((1R,2S)-2-(3,4-difluorophenyl)cyclopropyl)amino)-6-methylthieno[2,3-d]pyrimidin-2-yl)phenol], the IC50 is reported as > 10000 nM. In the case of `COc1ccccc1-c1nc(N[C@@H]2C[C@H]2c2ccc(F)c(F)c2)c2cc(C)sc2n1` [Example 496, N-((1R,2S)-2-(3,4-difluorophenyl)cyclopropyl)-2-(2-methoxyphenyl)-6-methylthieno[2,3-d]pyrimidin-4-amine], the IC50 is reported as > 10000 nM. `Cc1cc2c(N[C@@H]3C[C@H]3c3ccc(F)c(F)c3)nc(-c3ccc(O)cc3)nc2s1` [Example 497, 4-(4-(((1R,2S)-2-(3,4-difluorophenyl)cyclopropyl)amino)-6-methylthieno[2,3-d]pyrimidin-2-yl)phenol] was tested, and the IC50 was > 10000 nM. For `COc1ccc(-c2nc(N[C@@H]3C[C@H]3c3ccc(F)c(F)c3)c3cc(C)sc3n2)cc1` [Example 498, N-((1R,2S)-2-(3,4-difluorophenyl)cyclopropyl)-2-(4-methoxyphenyl)-6-methylthieno[2,3-d]pyrimidin-4-amine], the IC50 was 4100 nM. In the case of `Cc1cc2c(N[C@@H]3C[C@H]3c3ccc(F)c(F)c3)nc(-c3ccc(F)cc3F)nc2s1` [Example 499, 2-(2,4-difluorophenyl)-N-((1R,2S)-2-(3,4-difluorophenyl)cyclopropyl)-6-methylthieno[2,3-d]pyrimidin-4-amine], the IC50 is reported as 3400 nM. In the case of `Cc1cc2c(N[C@@H]3C[C@H]3c3ccc(F)c(F)c3)nc(-c3ccc(F)c(F)c3)nc2s1` [Example 500, 2-(3,4-difluorophenyl)-N-((1R,2S)-2-(3,4-difluorophenyl)cyclopropyl)-6-methylthieno[2,3-d]pyrimidin-4-amine], the IC50 is reported as 3600 nM. In the case of `Cc1cc2c(N[C@@H]3C[C@H]3c3ccc(F)c(F)c3)nc(-c3cccc(N(C)C)c3)nc2s1` [Example 501, N-((1R,2S)-2-(3,4-difluorophenyl)cyclopropyl)-2-(3-(dimethylamino)phenyl)-6-methylthieno[2,3-d]pyrimidin-4-amine], the IC50 is reported as > 10000 nM. For `C=Cc1nc(NCCCc2ccc(-c3ccc(OC(F)(F)F)cc3)cc2)c2cc(C)sc2n1` [Example 502, 2-ethenyl-6-methyl-N-(3-[4′-(trifluoromethoxy)-[1,1′-biphenyl]-4-yl]propyl)thieno[2,3-d]pyrimidin-4-amine], the IC50 was 6 nM. With `c1ccc(CCCNc2nc(N3CCOCC3)nc3sccc23)cc1` [Example 504, 2-morpholino-N-(3-phenylpropyl)thieno[2,3-d]pyrimidin-4-amine] the IC50 was > 10000 nM. In the case of `c1ccc(CCCNc2nc(NC3CC3)nc3sccc23)cc1` [Example 505, N2-cyclopropyl-N4-(3-phenylpropyl)thieno[2,3-d]pyrimidine-2,4-diamine], the IC50 is reported as 9100 nM. `Cc1cc2c(NCCCc3ccc(OC(F)(F)F)cc3)nc(N3CCCC3)nc2s1` [Example 506, 6-methyl-2-(pyrrolidin-1-yl)-N-(3-(4-(trifluoromethoxy)phenyl)propyl)thieno[2,3-d]pyrimidin-4-amine] gave an IC50 of 120 nM. `Cc1cc2c(NCCCc3ccccc3)nc(N3CCSCC3)nc2s1` [Example 507, 6-methyl-N-(3-phenylpropyl)-2-thiomorpholinothieno[2,3-d]pyrimidin-4-amine] was tested, and the IC50 was > 10000 nM. For `Cc1cc2c(NCCCc3ccccc3)nc(N3CCN(C)CC3)nc2s1` [Example 508, 6-methyl-2-(4-methylpiperazin-1-yl)-N-(3-phenylpropyl)thieno[2,3-d]pyrimidin-4-amine], the IC50 was > 10000 nM. `Cc1cc2c(NCCCc3ccccc3)nc(N3CCC3)nc2s1` [Example 510, 2-(azetidin-1-yl)-6-methyl-N-(3-phenylpropyl)thieno[2,3-d]pyrimidin-4-amine] gave an IC50 of 110 nM. In the case of `Cc1cc2c(NCCCc3ccccc3)nc(N3CC(F)(F)C3)nc2s1` [Example 511, 2-(3,3-difluoroazetidin-1-yl)-6-methyl-N-(3-phenylpropyl)thieno[2,3-d]pyrimidin-4-amine], the IC50 is reported as 570 nM. In the case of `Cc1cc2c(NCCCc3ccccc3)nc(N3CC(F)C3)nc2s1` [Example 512, 2-(3-fluoroazetidin-1-yl)-6-methyl-N-(3-phenylpropyl)thieno[2,3-d]pyrimidin-4-amine], the IC50 is reported as 610 nM. Work on `Cc1cc2c(NCCCc3ccccc3)nc(N3CCC(F)(F)C3)nc2s1` [Example 513, 2-(3,3-difluoropyrrolidin-1-yl)-6-methyl-N-(3-phenylpropyl)thieno[2,3-d]pyrimidin-4-amine] yielded an IC50 of 230 nM. `Cc1cc2c(NCCCc3ccccc3)nc(N3CCC[C@H]3C)nc2s1` [Example 514, (R)-6-methyl-2-(2-methylpyrrolidin-1-yl)-N-(3-phenylpropyl)thieno[2,3-d]pyrimidin-4-amine] gave an IC50 of 7000 nM. For `Cc1cc2c(NCCCc3ccccc3)nc(N3CCC(F)(F)CC3)nc2s1` [Example 515, 2-(4,4-difluoropiperidin-1-yl)-6-methyl-N-(3-phenylpropyl)thieno[2,3-d]pyrimidin-4-amine], the IC50 was > 10000 nM. `Cc1cc2c(NCCCc3ccccc3)nc(N3CCCC3)nc2s1` [Example 516, 6-methyl-N-(3-phenylpropyl)-2-(pyrrolidin-1-yl)thieno[2,3-d]pyrimidin-4-amine] showed an IC50 of 110 nM. For `Cc1cc2c(NCCCc3ccccc3)nc(N3CCCCC3)nc2s1` [Example 517, 6-methyl-N-(3-phenylpropyl)-2-(piperidin-1-yl)thieno[2,3-d]pyrimidin-4-amine], the IC50 was 3100 nM. Work on `COC1CN(c2nc(NCCCc3ccccc3)c3cc(C)sc3n2)C1` [Example 518, 2-(3-methoxyazetidin-1-yl)-6-methyl-N-(3-phenylpropyl)thieno[2,3-d]pyrimidin-4-amine] yielded an IC50 of 1900 nM. `Cc1cc2c(NCCCc3ccccc3)nc(N3CCSC3)nc2s1` [Example 519, 6-methyl-N-(3-phenylpropyl)-2-(thiazolidin-3-yl)thieno[2,3-d]pyrimidin-4-amine] showed an IC50 of 900 nM. In the case of `CCN(CC)c1nc(NCCCc2ccccc2)c2cc(C)sc2n1` [Example 520, N2,N2-diethyl-6-methyl-N4-(3-phenylpropyl)thieno[2,3-d]pyrimidine-2,4-diamine], the IC50 is reported as > 10000 nM. Work on `CNc1nc(NCCCc2ccccc2)c2cc(C)sc2n1` [Example 521, N2,6-dimethyl-N4-(3-phenylpropyl)thieno[2,3-d]pyrimidine-2,4-diamine] yielded an IC50 of 250 nM. With `Cc1cc2c(NCCCc3ccccc3)nc(NC3CC3)nc2s1` [Example 522, N2-cyclopropyl-6-methyl-N4-(3-phenylpropyl)thieno[2,3-d]pyrimidine-2,4-diamine] the IC50 was 4200 nM.
